# Values joined by “and” are separate entries in the source; they are usually repeats but may differ in a detail not shown here. Equal entries are not always repeated. Structures can show the parent of a compound that is named as a salt. Where two headings read alike, the source gives them in different places.
# Legend:
# NR1111/NR2A [1] = target: T1, NR1111/NR2A (Rattus norvegicus, UniProt P35439+Q00959); assay: NMDA-induced currents of NR1 splice variants, Xenopus oocytes, Example 4; type: cell-based; parameters: expressed in transfected cells; host or cells: Xenopus oocytes injected with NR1111 and NR2A mRNA; conditions: for maximum relative current (MRC) / percentage potentiation of the maximum NMDA response / NMDA nH / EC50: NR1111/2A; for EC50: read-out: NMDA EC50
# Procedure: Overnight cultures (500 ml) of transformed bacterial cells were prepared in order to grow sufficient quantities for maxiprep isolation of the plasmid CDNA. Maxipreps were done using a Sorvall RC-5B ultracentrifuge, Qiagen columns and cDNA was quantitated with spectrophotometry (OD260 and OD260/ OD280 ratio). The resulting plasmid cDNA was linearized by digestion with an appropriate restriction enzyme that cleaves distal to the cDNA insert (XhoI for NR2A or NotI for NR1100, NR1000, NR1111, NR1011, NR1101, NR1001). […] The samples were stored at −20° C. until use.
# In vitro transcription was performed using the Ambion mMessage mMachine kit with T7 (NR1100, NR1000, NR1111, NR1011, NR1101, NR1001) RNA polymerase. The reaction was assembled on ice and allowed to incubate at 37° C. for 1-2 hr. The resulting mRNA was precipitated (reaction termination) using lithium chloride/5 mM EDTA solution and dissolved in RNase-free H2O. The concentration (OD260) and OD260/OD280 ratio (should be more than 1.5) was determined by spectrophotometer. The yield of mRNA was generally 15-30 μg. mRNA was stored at −80° C. until use.
# Intracellular recording microelectrodes were fabricated from 100 μl borosilicate glass disposable micropipettes using a 2-step protocol on a standard horizontal Flaming-Brown micropipette puller.
# NR1111/NR2A [2] = target: T1, NR1111/NR2A; parameters: agonist Emax: dose or concentration left out as unconfirmed
# GluR6 kainate receptor = target: T2, GluR6 kainate receptor (Rattus norvegicus, UniProt P42260); assay: Kainate-induced currents, Xenopus oocytes injected with GluR6 cRNA; type: cell-based
# T2 construct: expressed in transfected cells; host or cells: Xenopus oocytes injected with GluR6 cRNA (concanavalin A treated)
# Excerpt: (§1) Plasmids were obtained from the following individuals: Dr. Suzanne Zukin (Albert Einstein College of Medicine, Bronx, N.Y.), NR1100; Dr. Shigetada Nakanishi (Kyoto University Faculty of Medicine, Kyoto, Japan), NR2A; Dr. Stephen Heinemann (Salk Institute, San Diego, Calif.), GluR1 (flop), GluR3 (flop), and GluR6. Plasmids were linearized with BamH1 (NR1100), XhoI (NR2A, GluR1, GluR3) or XbaI (GluR6) prior to in vitro transcription with T3 (GluR1, GluR3, GluR6) or T7 (NR1100, NR2A) RNA polymerase using the Message Machine kit (Ambion, Austin, Tex.). […] RNA solutions (50-70 nl) were injected into oocytes for delivery of NR1100 (5 ng), NR1100:NR2A (1:10 ng), GluR1 (5 ng). GluR3 (5 ng), or GluR6 (20 ng). Oocytes were incubated in ND96 at 18-20° C. for 3-7 days prior to electrophysiological recording.
# (§2) Steroid solutions were prepared as 70-100 mM frozen stocks in dimethyl sulfoxide (DMSO). The final DMSO concentration of all recording solutions was between 0.1% to 0.5% and was constant within an experiment.
# (§3) Perfusion control and data acquisition were carried out using an automated oocyte electrophysiology workstation that was developed for the rapid collection of concentration-response data and real-time waveform analysis (Yaghoubi et al., Soc. Neurosci. Abstr. 20: 1109 (1995)). This system is implemented on a Macintosh IIci computer (Apple Computer, Cupertino, Calif.) equipped with MacA-DIOS II data acquisition and control hardware (GW Instruments, Somerville, Mass.). Drug application is controlled by the computer through a series of valves, using custom-written software based on the SuperScope II development environment, improving the efficiency and reproducibility of data collection. Experiments were carried out using an Axoclamp-2A voltage clamp amplifier (Axon Instruments, Foster City, Calif.) in two-electrode voltage clamp mode. Intracellular microelectrodes (1-3 MΩ) were filled with 3 M KCl. […] Membrane potential was clamped at −60 to −70 mV and stepped to −100 mV at the start of data acquisition unless otherwise stated. […] Current and voltage recordings were digitized at 100 Hz for analysis. GluR6 injected oocytes were treated for 10 min with 10 μg/ml concanavalin A to prevent fast desensitization.
# (§4) Results are expressed as mean±S.E.M. Statistical comparisons were made using Student's t-test.
# Penta-Mutant/NR2A = Penta-Mutant/NR2A (Rattus norvegicus, UniProt P35439+Q00959, K193A/K202A/R187A/R233A/R252A); assay: NMDA-induced currents, Xenopus oocytes, Example 5
# Procedure: Plasmids were linearized with appropriate restriction enzyme prior to in vitro transcription using the Message Machine kit (Ambion, Inc., Austin, Tex.).
# Female, oocyte positive Xenopus laevis frogs were purchased from Xenopus I (Dexter, Mich). […] Oocytes were injected with 50 nL of RNA solutions using an electronic microinjector (Drummond Inc., Broomall, Pa.). […] The injected oocytes were used for experiments following 1-5 days of incubation in Barth's solution at 18-20° C.
# The microelectrodes were fabricated with a programmed puller (Sutter Instrument Co., Calif.) from borosilicate glass capillaries and were filled with 3 M KCl solution. The resistance of filled microelectrodes was in the range of 1-3 MΩ. […] If not mentioned otherwise, during data acquisition oocytes were clamped at a holding potential of −70 mV. The membrane current was filtered at 500 Hz and sampled at 100 Hz. Drugs were applied using a gravity driven external perfusion system. The working ,volume of the recording chamber was 30 μl and the rate of the perfusion was 50 μl/sec. The drug application lasted 10 sec and was followed by a 60 sec wash. The data acquisition and external perfusion control were done using the SuperScopeII software package (GW Instruments, Mass.). All experiments were performed at room temperature (22-24° C.). Peak or steady-state current measurements were normalized and expressed as a fraction of the peak or steady-state control current measurements, which were performed before and after application of every single consentration of agonist or steroid. […] The data are presented as mean±S.E.M. with number of experiments in parentheses.
# NR1100 NMDA receptor = target: T3, NR1100 NMDA receptor (Rattus norvegicus, UniProt P35439); assay: NMDA-induced currents, Xenopus oocytes injected with NR1100 cRNA only, Example 1; type: cell-based
# T3 construct: expressed in transfected cells; host or cells: Xenopus oocytes injected with NR1100 cRNA only
# Excerpt: as §1, §2, §3, §4
# [3] = target: T4, NR1100+NR2A NMDA receptor (Rattus norvegicus, UniProt P35439+Q00959); assay: NMDA-induced currents, Xenopus oocytes, Example 1; type: cell-based; conditions: for Percentage change in NMDA response: NR1100 + NR2A, steroid 100 μM, −100 mV
# T4 construct: expressed in transfected cells; host or cells: Xenopus oocytes co-injected with NR1100 and NR2A cRNA
# Excerpt: as §1, §2, §3, §4
# T2 sequence (P42260 32-908): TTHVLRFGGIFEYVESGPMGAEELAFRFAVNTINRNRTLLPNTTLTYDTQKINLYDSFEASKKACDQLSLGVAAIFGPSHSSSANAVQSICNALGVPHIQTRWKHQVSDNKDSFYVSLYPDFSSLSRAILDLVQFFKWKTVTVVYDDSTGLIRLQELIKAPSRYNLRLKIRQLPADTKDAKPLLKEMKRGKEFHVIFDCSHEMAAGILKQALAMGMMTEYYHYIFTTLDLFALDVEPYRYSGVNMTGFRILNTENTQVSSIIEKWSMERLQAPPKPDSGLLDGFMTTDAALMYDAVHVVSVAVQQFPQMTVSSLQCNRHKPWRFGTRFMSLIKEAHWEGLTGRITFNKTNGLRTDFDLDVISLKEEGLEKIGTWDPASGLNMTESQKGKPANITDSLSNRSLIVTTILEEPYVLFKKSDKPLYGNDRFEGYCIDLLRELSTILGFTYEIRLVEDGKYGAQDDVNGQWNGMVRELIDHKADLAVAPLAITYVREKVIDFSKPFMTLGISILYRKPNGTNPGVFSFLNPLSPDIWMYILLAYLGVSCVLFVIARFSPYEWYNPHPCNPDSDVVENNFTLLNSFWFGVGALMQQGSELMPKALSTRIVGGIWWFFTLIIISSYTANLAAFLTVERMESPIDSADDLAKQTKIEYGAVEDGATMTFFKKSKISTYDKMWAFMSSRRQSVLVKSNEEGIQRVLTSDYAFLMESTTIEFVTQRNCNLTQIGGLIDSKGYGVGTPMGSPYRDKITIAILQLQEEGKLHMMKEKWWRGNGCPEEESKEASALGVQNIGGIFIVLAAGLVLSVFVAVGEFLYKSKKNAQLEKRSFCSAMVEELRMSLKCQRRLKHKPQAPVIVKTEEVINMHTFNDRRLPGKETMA
# T1 sequence (Q00959 23-1464, other chains not shown): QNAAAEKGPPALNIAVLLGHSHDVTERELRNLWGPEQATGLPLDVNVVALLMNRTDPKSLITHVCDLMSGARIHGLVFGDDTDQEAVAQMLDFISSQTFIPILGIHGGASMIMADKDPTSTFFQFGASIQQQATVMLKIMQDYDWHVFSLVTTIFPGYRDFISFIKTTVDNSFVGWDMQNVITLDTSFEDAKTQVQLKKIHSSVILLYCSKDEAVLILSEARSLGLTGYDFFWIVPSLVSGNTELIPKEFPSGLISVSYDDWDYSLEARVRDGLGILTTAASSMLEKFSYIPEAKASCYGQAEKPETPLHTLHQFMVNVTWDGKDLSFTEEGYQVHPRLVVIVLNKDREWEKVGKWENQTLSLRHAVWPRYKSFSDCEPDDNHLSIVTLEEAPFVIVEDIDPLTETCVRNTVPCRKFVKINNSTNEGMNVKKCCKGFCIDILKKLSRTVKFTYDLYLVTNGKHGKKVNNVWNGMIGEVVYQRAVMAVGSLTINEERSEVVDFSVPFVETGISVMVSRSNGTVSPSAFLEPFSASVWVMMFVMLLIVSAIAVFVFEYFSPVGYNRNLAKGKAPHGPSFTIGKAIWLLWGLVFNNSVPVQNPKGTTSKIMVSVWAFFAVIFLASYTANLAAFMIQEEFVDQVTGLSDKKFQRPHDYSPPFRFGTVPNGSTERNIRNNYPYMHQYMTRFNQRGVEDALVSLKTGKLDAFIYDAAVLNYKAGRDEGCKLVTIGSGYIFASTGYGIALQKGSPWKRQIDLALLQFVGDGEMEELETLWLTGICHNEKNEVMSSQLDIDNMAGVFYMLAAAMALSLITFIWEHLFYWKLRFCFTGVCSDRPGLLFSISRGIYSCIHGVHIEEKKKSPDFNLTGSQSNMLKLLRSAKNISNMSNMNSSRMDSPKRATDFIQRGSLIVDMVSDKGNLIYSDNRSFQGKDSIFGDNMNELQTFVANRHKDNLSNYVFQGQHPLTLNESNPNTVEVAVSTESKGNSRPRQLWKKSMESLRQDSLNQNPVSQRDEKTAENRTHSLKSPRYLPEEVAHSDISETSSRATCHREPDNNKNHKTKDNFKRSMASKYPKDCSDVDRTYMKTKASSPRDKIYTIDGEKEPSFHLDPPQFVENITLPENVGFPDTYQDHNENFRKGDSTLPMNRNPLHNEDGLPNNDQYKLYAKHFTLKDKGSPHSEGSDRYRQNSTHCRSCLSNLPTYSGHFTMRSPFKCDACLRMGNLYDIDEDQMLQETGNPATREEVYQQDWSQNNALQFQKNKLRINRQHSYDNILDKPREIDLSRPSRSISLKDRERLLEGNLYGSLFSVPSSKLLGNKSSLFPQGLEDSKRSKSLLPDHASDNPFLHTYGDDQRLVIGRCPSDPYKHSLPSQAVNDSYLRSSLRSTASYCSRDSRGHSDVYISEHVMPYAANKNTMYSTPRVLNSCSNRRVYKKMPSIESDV
# T4 sequence (Q00959 23-1464, other chains not shown): as above
compound,measurement,setting,value
pregnenolone sulfate [PS],maximum relative current (MRC),"NR1111/NR2A [1]; 100 μM PS, 200 μM NMDA+10 μM glycine, pH 7.5",2.28
same,maximum relative current (MRC),"NR1111/NR2A [1]; 100 μM PS, pH 6.5",4.06
same,percentage potentiation of the maximum NMDA response,"NR1111/NR2A [1]; 100 μM PS, pH 7.5",103%
same,maximum relative current (MRC),"NR1111/NR2A [1]; 100 μM PS, pH 8.5",1.59 and 1.58
same,percentage potentiation of the maximum NMDA response,"NR1111/NR2A [1]; 100 μM PS, pH 8.5",47%
same,difference in mrc between pH=6.5 and pH=7.5,"NR1111/NR2A [1]; NR1111/NR2A, 100 μM PS",1.8 fold
same,difference in mrc between pH=7.5 and pH=8.5,"NR1111/NR2A [1]; NR1111/NR2A, 100 μM PS",1.4 fold
same,Maximum potentiation of NMDA-induced current by PS,NR1111/NR2A [2]; NR1111/NR2A,1.51±0.04 fold
same,PS nHill,NR1111/NR2A [2]; NR1111/NR2A,1.28 ± 0.19
same,PS Emax,"NR1111/NR2A [2]; NR1111/NR2A, curve 1+Emax/(1+(EC50/c)n)",0.51 ± 0.04
same,"PS nH, inhibition of kainate-induced current","GluR6 kainate receptor; GluR6, 10 μM kainate",0.29
same,inhibition of kainate response,"GluR6 kainate receptor; GluR6, 500 μM PS",64±2%
same,reduction of kainate Imax,"GluR6 kainate receptor; GluR6, PS 100 μM",33%
same,inhibition of the response to kainate,"GluR6 kainate receptor; GluR6, steroid 100 μM",42%
same,Percentage change in kainate response,"GluR6 kainate receptor; GluR6, steroid 100 μM, 10 μM kainate, −100 mV",−42 ± 3(8) %
same,reduction in PS potentiation of the NMDA response vs wild type,"Penta-Mutant/NR2A; 100 uM PS, 300 uM NMDA, 50 uM Glycine",40% and 47.5±8.80%
same,maximum potentiation of NMDA induced current,NR1100 NMDA receptor; NR1100 cRNA only,114%
same,steroid Emax (NMDA-induced current relative to control),"NR1100 NMDA receptor; NR1100 cRNA only, 300 μM NMDA",2.14
same,Percentage change in NMDA response,[3]; 100 μM NMDA,+281 ± 27(7) %
same,maximum enhancement of NMDA response,"[3]; NR1100+NR2A, 100 μM NMDA",343%
same,steroid Emax (NMDA-induced current relative to control),"[3]; NR1100+NR2A, 100 μM NMDA",4.43
"CC(=O)[C@H]1CC[C@H]2[C@@H]3CC[C@@H]4C[C@H](OS(=O)(=O)O)CC[C@]4(C)[C@H]3CC[C@]12C [3α5βS, 3α5β-pregnanolone sulfate]",inhibition at 100 µM,"NR1111/NR2A [1]; pH 7.5, read-out: percentage inhibition of the maximum NMDA response",59%
same,maximum extent of inhibition by 3α5βS,NR1111/NR2A [2]; NR1111/NR2A,75±7%
same,3α5βS Emax,NR1111/NR2A [2]; splice variant 111 /NR2A,−0.75 ± 0.07
same,3α5βS nHill,NR1111/NR2A [2]; splice variant 111 /NR2A,1.09 ± 0.9
same,Percentage change in kainate response,GluR6 kainate receptor,−34 ± 5(7) %
same,percent decrease in maximum inward current,"Penta-Mutant/NR2A; Penta-Mutant/NR2A, 100 uM steroid, 300 uM NMDA, 50 uM Glycine",42.79±2.29%
same,EC50,NR1100 NMDA receptor,57 µM
same,EC50,[3],41 µM
same,Percentage change in NMDA response,[3]; 100 μM NMDA,−64 ± 3(7) %
"CN[C@H](CC(=O)O)C(=O)O [NMDA, N-methyl-D-aspartate]",NMDA nH,"NR1111/NR2A [1]; pH 7.5, +100 μM 3α5βS",1.50
same,NMDA nH,"NR1111/NR2A [1]; pH 7.5, +100 μM PS",2.02
same,NMDA nH,"NR1111/NR2A [1]; pH 7.5, control",1.67
same,NMDA nH,"NR1111/NR2A [1]; pH 8.5, +100 μM PS",1.82
same,NMDA nH,"NR1111/NR2A [1]; pH 8.5, control",1.93
same,EC50,"NR1111/NR2A [1]; pH 7.5, +100 μM 3α5βS",158 µM
same,EC50,"NR1111/NR2A [1]; pH 7.5, +100 μM PS",89 µM
same,EC50,"NR1111/NR2A [1]; pH 7.5, control, 10 μM glycine",103 µM
same,EC50,"NR1111/NR2A [1]; pH 8.5, +100 μM PS",94 µM
same,EC50,"NR1111/NR2A [1]; pH 8.5, control",110 µM
same,agonist Emax,"NR1111/NR2A [2]; NR1111/NR2A, absence of PS",1.34 ± 0.09
same,agonist nHill,"NR1111/NR2A [2]; NR1111/NR2A, absence of PS",1.49 ± 0.02
same,agonist nHill,"NR1111/NR2A [2]; NR1111/NR2A, presence of 100 mM PS",1.33 ± 0.22
same,agonist Emax,"NR1111/NR2A [2]; NR1111/NR2A, presence of PS",(2.27 ± 0.07)
same,EC50,"Penta-Mutant/NR2A; read-out: NMDA EC50, Penta-mutant/NR2A",55 ± 3.4 µM
same,NMDA Emax (normalized to 100 μM NMDA response),"[3]; NR1100+NR2A, +100 μM 3α5βS",0.35
same,NMDA nH,"[3]; NR1100+NR2A, +100 μM 3α5βS",1.66
same,NMDA Emax (normalized to 100 μM NMDA response),"[3]; NR1100+NR2A, +100 μM PS",3.21
same,NMDA nH,"[3]; NR1100+NR2A, +100 μM PS",1.54
same,NMDA Emax (normalized to 100 μM NMDA response),"[3]; NR1100+NR2A, control",1.14
same,NMDA nH,"[3]; NR1100+NR2A, control",1.43
same,EC50,"[3]; read-out: NMDA EC50, NR1100+NR2A, +100 μM 3α5βS",15 µM
same,EC50,"[3]; read-out: NMDA EC50, NR1100+NR2A, +100 μM PS",30 µM

# — patent US6623933B1 (priority 1999, dated 2003)
